pIC50: −log10 of the molar value.
How the values were obtained:
[1] = tested on: HCT-116 cells; test: Cell growth, CellTiter-Glo Luminescent Cell Viability Assay, HCT-116; assay type: cell-based; conditions: Homo sapiens, HCT116 cells, 72 h incubation, read-out: IC50 antiproliferative assay HCT116
Method in brief: (§1)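 Exponentially growing cells exposed 72 h to a range of inhibitor concentrations. Viability measured as cellular ATP by CellTiter-Glo luminescence (2 min lysis, read after 10 min RT); IC50 calculated and binned into ranges (≤1.0, 1.0–3.0, ≥3.0 μM).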

[2] = tested on: A549 cells; test: Cell growth, CellTiter-Glo Luminescent Cell Viability Assay, A549; assay type: cell-based; conditions: Homo sapiens, 72 h incubation, read-out: IC50 antiproliferative assay A549
Method in brief: as §1

[3] = tested on: HDAC (nuclear fraction of Hela cells); test: Assay of enzyme inhibition of HDAC (BIOMOL Kit); assay type: biochemical; conditions: substrate 200 μM, 15 min at RT
Method in brief: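 Enzyme source was HeLa nuclear fraction, incubated 15 min at RT with compound and an acetyl-lysine substrate at 200 μM. IC50 values were derived from concentration-response data.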

[4] = tested on: K562 cells; test: Cell growth, CellTiter-Glo Luminescent Cell Viability Assay, K562; assay type: cell-based; conditions: Homo sapiens, 72 h incubation, read-out: IC50 antiproliferative assay K562
Method in brief: as §1

SMILES | pIC50 [1] | pIC50 [2] | pIC50 [3] | pIC50 [4]
O=C(/C=C/c1ccc2c(c1)OC1(CCN(C(=O)c3ccccc3)CC1)CC2=O)NO [Example 11, (E)-3-{1′-Benzoyl-4-oxo-spiro[chromane-2,4′-piperidine]-7-yl}-N-hydroxy-acrylamide] | ≤ 5.52 | ≤ 5.52 | 6.00 to 7.00 | ≤ 5.52
O=C(/C=C/c1ccc2c(c1)OC1(CCN(Cc3ccccc3)CC1)CC2=O)NO [Example 9, (E)-3-{1′-Benzyl-4-oxo-spiro[chromane-2,4′-piperidine]-7-yl}-N-hydroxy-acrylamide] | ≤ 5.52 | ≤ 5.52 | < 6.00 | ≤ 5.52
O=C(/C=C/c1ccc2c(c1)C(=O)CC1(CCN(C(=O)Nc3ccccc3)CC1)O2)NO [Example 48, (E)-3-{1′-Phenylcarbamoyl-4-oxo-spiro[chromane-2,4′-piperidine]-6-yl}-N-hydroxy-acrylamide] | 5.52 to 6.00 | ≤ 5.52 | 6.00 to 7.00 | 5.52 to 6.00
O=C(/C=C/c1ccc2c(c1)C(=O)NC1(CCN(Cc3ccccc3)CC1)O2)NO [Example 25, (E)-3-{1′-Benzyl-3,4-dihydro-4-oxo-spiro[2H-(1,3)-benzoxazine-2,4′-piperidin]-6-yl}-N-hydroxy-acrylamide] | ≥ 6.00 | 5.52 to 6.00 | > 7.00 | ≥ 6.00
CS(=O)(=O)N1CCC2(CC1)CC(=O)c1cc(/C=C/C(=O)NO)ccc1O2 [Example 43, (E)-3-{1′-Methanesulfonyl-4-oxo-spiro[chromane-2,4′-piperidine]-6-yl}-N-hydroxy-acrylamide] | ≤ 5.52 | ≤ 5.52 | 6.00 to 7.00 | ≤ 5.52
O=C(/C=C/c1ccc2c(c1)C(O)CC1(CCN(Cc3ccccc3)CC1)O2)NO (stereo not drawn) [Example 14, (E)-3-{1′-Benzyl-4-hydroxy-spiro[chromane-2,4′-piperidine]-6-yl}-N-hydroxy-acrylamide] | 5.52 to 6.00 | ≤ 5.52 | < 6.00 | 5.52 to 6.00
O=C(/C=C/c1ccc2c(c1)CCC1(CCN(Cc3ccccc3)CC1)O2)NO [Example 13, (E)-3-{1′-Benzyl-spiro[chromane-2,4′-piperidine]-6-yl}-N-hydroxy-acrylamide] | ≤ 5.52 | ≤ 5.52 | < 6.00 | ≤ 5.52

The remaining lines, values ahead:

pIC50 [1] | pIC50 [2] | pIC50 [3] | pIC50 [4] | SMILES
≥ 6.00 | 5.52 to 6.00 | 6.00 to 7.00 | ≥ 6.00 | O=C(/C=C/c1ccc2c(c1)C(=O)CC1(CCN(Cc3ccc(F)cc3)CC1)O2)NO [Example 36, (E)-3-{1′-(4-Fluoro-benzyl)-4-oxo-spiro[chromane-2,4′-piperidine]-6-yl}-N-hydroxy-acrylamide]
≥ 6.00 | 5.52 to 6.00 | 6.00 to 7.00 | ≥ 6.00 | O=C(/C=C/c1ccc2c(c1)C(=O)CC1(CCN(Cc3ccc(-c4ccccc4)cc3)CC1)O2)NO [Example 52, (E)-3-{1′-(Biphenyl-4-ylmethyl)-4-oxo-spiro[chromane-2,4′-piperidine]-6-yl}-N-hydroxy-acrylamide]
≥ 6.00 | ≥ 6.00 | > 7.00 | ≥ 6.00 | CNc1ccc(CCN2CCC3(CC2)CC(=O)c2cc(/C=C/C(=O)NO)ccc2O3)cc1 [Example 63, (E)-3-{1′-[2-(4-Methylamino-phenyl)-ethyl]-4-oxo-spiro[chromane-2,4′-piperidine]-6-yl}-N-hydroxy-acrylamide]
≥ 6.00 | 5.52 to 6.00 | 6.00 to 7.00 | ≥ 6.00 | Cc1ccc(CN2CCC3(CC2)CC(=O)c2cc(/C=C/C(=O)NO)ccc2O3)cc1 [Example 30, (E)-3-{1′-(4-Methyl-benzyl)-4-oxo-spiro[chromane-2,4′-piperidine]-6-yl}-N-hydroxy-acrylamide]
5.52 to 6.00 | 5.52 to 6.00 | 6.00 to 7.00 | ≥ 6.00 | O=C(/C=C/c1ccc2c(c1)C(=O)CC1(CCN(c3ccccc3)CC1)O2)NO [Example 7, (E)-3-{1′-Phenyl-4-oxo-spiro[chromane-2,4′-piperidine]-6-yl}-N-hydroxy-acrylamide]

Reference: US9115148B2, “Spirocyclic derivatives as histone deacetylase inhibitors” (DAC S.R.L., priority 2008, dated 2015)
